# Laboratory results reported in patent publication US10112918B2, “15-oxospiramilactone derivatives, preparation method and uses thereof” (Kunming Institute of Botany, The Chinese Academy of Sciences, priority 2013, dated 2018).
# Like-named read-outs stand apart in the source and are kept apart here.
# Legend:
# Type in all cases: cell-based
# [1] = system: HL-60 (human promyelocytic leukemia cells); assay: MTT inhibition of tumor cell growth, HL-60; conditions: Homo sapiens, HL-60, 48 h
# Procedure, shortened: (§1)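 Cells were seeded at 5000-10000 per well in DMEM or RPMI1640 with 10% FBS, adherent lines pre-cultured 12 h. Compounds were tested at 40 μM, with 5-concentration re-screening for those near 50% inhibition, in triplicate for 48 h at 37° C; MTT/SDS absorbance at 595 nm gave IC50 by Reed-Muench.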
# [2] = system: SMMC-7721 (human hepatoma cells); assay: MTT inhibition of tumor cell growth, SMMC-7721; conditions: Homo sapiens, SMMC-7721, 48 h
# Procedure, shortened: as §1
# [3] = system: A-549 (Human lung adenocarcinoma cells); assay: MTT inhibition of tumor cell growth, A-549; conditions: Homo sapiens, A549, 48 h
# Procedure, shortened: as §1
# [4] = system: MCF-7 (human breast cancer cells); assay: MTT inhibition of tumor cell growth, MCF-7; conditions: Homo sapiens, MCF7, 48 h
# Procedure, shortened: as §1
# [5] = system: SW-480 (human colon cancer cells); assay: MTT inhibition of tumor cell growth, SW-480; conditions: Homo sapiens, SW480, 48 h
# Procedure, shortened: as §1
# [6] = system: Wnt signaling pathway (Top-Flash reporter gene); assay: Top-Flash Wnt reporter gene assay in HEK293T cells with Wnt3a conditioned medium; conditions: Homo sapiens, HEK-293T, 6 h, HEK293T, Wnt3a conditioned medium, 6 h
# Experimental: HEK293T cells were cultured in DMEM containing 10% fetal bovine serum (Invitrogen) at 37° C., 5% CO2. The cells were passaged every other day. The density was retained at 70˜80% during passage. L cell line (CRL-2647, purchased from the gene bank of ATCC, the US) and the control cell line (CRL-2648, purchased from ATCC, US), which stably secreted mouse Wnt3a protein, were cultured in DMEM containing 50 ug/ml G418 and 10% fetal bovine serum, at 37° C., 5% CO2. When the cells grew to a density of about 70%, the medium was replaced with DMEM containing 10% fetal bovine serum. After continuous culture for 4 days, the culture was collected and centrifuged, and the supernatant was kept so that the Wnt conditioned medium was obtained. After titration assay, the conditioned medium was quick-frozen in liquid nitrogen, and placed at −80° C. for long-term storage, so that the titer was kept unchanged.
# The cells were seeded to a 48-well plate at a density of […] cells per well, and transfected 20 h later. The reagents for plasmid transfection were calculated based on the amount in each well of the 48-well plate as following: the total amount of plasmid was 125 ng/well; the plasmid was first added to a serum-free medium (25 μL/well) and mixed well; PLUS reagent (Invitrogen) was then added in an amount of 0.5 μL/well and mixed well, then stood for 15 min; Lipofectamine (Invitrogen) liposome was added in an amount of 0.5 μL/well to serum-free DMEM medium (25 μL/well), and then mixed with the solution containing the plasmid and the PLUS, and stood for 15 min. The cells were cultured in serum-free DMEM medium (100 μL/well), and the final mixture of plasmid, PLUS and Lipofectamine were added to the cells. After incubation for 3 h, the transfection was stopped by the medium containing 10% fetal bovine serum (200 μL/well).
# The HEK293T cells used for activity assay of the report gene were transfected by the method as shown in 2). Activity assay of Wnt reporter gene: the amount of plasmid for transfection was 5 ng/well for TOP-flash and 5 ng/well for GFP plasmid as internal standard, with lacZ added to reach a total amount of 125 ng/well. […] After treating for 6 h, Boehringer Mannheim Luci-ferase Assay Kit was used to lyse cells (200 μL/well). 50 μL from each well was pipetted into a 96-well plate. The indensity of GFP protein in the cell lysate was measured by fluorimeter FL600 (BIO-TEK Inc. Winooski, Vt.), and taken as internal standard for cell transfection efficiency. 10 μL substrate of luciferase was then added to each well, and the activity of luciferase was measured by Micro Lumate Plus (Perkin Elmer Inc. Wellesley, Mass.) luminometer. Finally, GFP indensity was used as internal standard to calibrate the activity of luciferase, i.e. the activity of Wnt reporter gene.
# Calculation of IC50 (taking the calculation of IC50 of the Wnt signaling pathway for example): background (the activity as measured in the groups treated with a conditioned medium containing DMSO only) was subtracted from the reporter gene activity as measured in the groups treated by Wnt3a conditioned medium with or without the compound to be tested at different concentrations; and the obtained value was defined as the activity of the reporter gene induced by Wnt or the residual activity of the reporter gene after adding the compound to be tested. The residual activity was normalized by the activity induced by Wnt to get the relative residual activity. Then combine with the concentrations of the compound to be tested to plot a linear graph, and a dose-effect curve was fitted based on 4-parameter logistic fit. IC50 of the Wnt signaling pathway is determined as the concentration at which the relative residual activity is 0.5.
# [7] = Table 1, 7-hydroxy derivatives of S-3
# [8] = Table 1, 7-hydroxy derivatives of S-3, read-out: IC50 SW-480
# [9] = Table 7 (second), derivatives modified on 7-hydroxyl of S-3, read-out: IC50 (μM), inhibitory activity on the Wnt signaling pathway
# [10] = Table 4, derivatives obtained by reduction of the lactonic ring
# [11] = Table 2, derivatives having potential Michael reaction acceptor
Structure (SMILES),"IC50 [1, 7] [µM]","IC50 [2, 7] [µM]","IC50 [3, 7] [nM]","IC50 [4, 7] [µM]","IC50 [5, 8] [µM]","IC50 [6, 9] [µM]",other results
C=C1C(=O)C23CC[C@H]1CC2[C@]1(COS(C)(=O)=O)CCC[C@@](C)(COC(=O)N2CCOCC2)C1CC3=O (stereo partly drawn) [Compound 61],–,–,–,–,–,–,"IC50 [1, 10]: 2.7 µM; IC50 [2, 10]: 2.18 µM; IC50 [3, 10]: 2320 nM; IC50 [4, 10]: 2.05 µM; IC50 ([5]; Table 4, derivatives obtained by reduction of the lactonic ring, read-out: IC50 SW-480): 3.37 µM; IC50 ([6]; Table 10, read-out: IC50 (μM), inhibitory activity on the Wnt signaling pathway): 32.3 ± 3.01 µM"
C=C1C(=O)C23CC[C@H]1CC2[C@@]12CCC[C@@](C)(COC1=O)C2C[C@H]3OS(C)(=O)=O (stereo partly drawn) [Compound 1q],5.15,10.5,4170,3.82,3.43,15.1 ± 2.89,–
C=C1C(=O)C23CC[C@H]1CC2[C@@]12CCC[C@@](C)(COC1=O)C2C[C@H]3OC(=O)c1ccccc1 (stereo partly drawn) [Compound 1j],2.99,0.74,2970,3.71,3.95,14.7 ± 0.18,–
C=C1C(=O)C23CC[C@H]1CC2[C@]1(COC(C)=O)CCC[C@@](C)(COC(C)=O)C1[C@H](COC(C)=O)C3=O (stereo partly drawn) [Compound 52],–,–,–,–,–,–,"IC50 [1, 11]: 6.33 µM; IC50 [2, 11]: 15.4 µM; IC50 [3, 11]: 11100 nM; IC50 [4, 11]: 15.1 µM; IC50 ([5]; Table 2, derivatives having potential Michael reaction acceptor, read-out: IC50 SW-480): 12.9 µM; IC50 ([6]; Table 9, read-out: IC50(μM), inhibitory activity on the Wnt signaling pathway): > 60 µM"

# Second part, led by results:
"IC50 [1, 7] [µM]","IC50 [2, 7] [µM]","IC50 [3, 7] [nM]","IC50 [4, 7] [µM]","IC50 [5, 8] [µM]","IC50 [6, 9] [µM]",Structure (SMILES),other results
6.86,10.2,5970,5.85,6.42,30 ± 2.22,C=CC(=O)O[C@@H]1CC2[C@@]3(C)CCC[C@@]2(C(=O)OC3)C2C[C@@H]3CCC21C(=O)C3=C (stereo partly drawn) [Compound 1g],–
4.44,4.1,2960,2.74,2.37,22.14 ± 0.1,C=C1C(=O)C23CC[C@H]1CC2[C@@]12CCC[C@@](C)(COC1=O)C2C[C@H]3OC(=O)CN=[N+]=[N-] (stereo partly drawn) [Compound 1e],–
1.13,0.78,640,3.67,2.86,17.9 ± 0.98,C=C1C(=O)[C@]23CC[C@H]1CC2[C@@]12CCC[C@@](C)(COC1=O)C2C[C@H]3OC(=O)CCl (stereo partly drawn) [Compound 1c],–
